Laboratory results reported in patent US20250360167A1 (Keryx Biopharmaceuticals, Inc., priority 2013, published 2025).

Columns and labels:
Assay type in all cases: in vivo, human
C-Terminal FGF-23 = experiment: Phase 2 trial (Example 2): C-terminal FGF-23; conditions: n = 63
From the text: (§1) The key secondary endpoints of the study were the mean changes in ferritin, hemoglobin and FGF-23 from baseline to the end of the 12-week treatment period versus placebo in the ITT group.

[1] = Phase 2 trial (Example 2): safety and tolerability
Description: The safety population in the study included all randomized patients who took at least one dose of study drug.
Serious adverse events occurred in six KRX-0502 subjects (8%) versus ten placebo subjects (14%). Two deaths were recorded in the study, both from the placebo group.

[2] = Phase 2 trial (Example 2): treatment failures; conditions: two consecutive visits; 12-week treatment period
Description: If a subject has a serum phosphorus ≥6.0 mg/dL for at least two visits in a row during the 12-week treatment period, the subject is considered a treatment failure, stops study drug and exits the study.
The use of IV iron and erythropoietin stimulating agents (ESAs) is not permitted during the two-week washout and 12-week treatment periods. If a subject's hemoglobin level (Hgb) is <9.0 g/dL during the two-week washout, the subject is a screen failure. If a subject's Hgb is <9.0 g/dL for at least two visits in a row during the 12-week treatment period, the subject is considered a treatment failure, stops study drug and exits the study.
Patients were discontinued from the study if they had hemoglobin measurements <9.0 g/dL on two consecutive visits or serum phosphorus measurements ≥6.0 mg/dL on two consecutive visits following randomization.

[3] = tested on: intact fibroblast growth factor 23 (FGF23); experiment: Phase 2 trial (Example 2): intact FGF-23; conditions: n = 63
Description: Change in calcium x phosphorus product, serum calcium, estimated glomerular filtration rate (eGFR), urinary phosphorus, bicarbonate levels, serum iron, UIBC, TIBC, iPTH, and intact fibroblast growth factor 23 (FGF23) from baseline (Visit 4, Week 0) to the end of treatment (Visit 11, Week 12) are also assessed as secondary endpoints.
as §1

[4] = Phase 3 trial (Example 1): cumulative IV iron intake to Week 52
Description: Laboratory measurements were conducted throughout the study to assess safety and efficacy. The dose and specific IV iron preparation administered (if necessary) were at the discretion of the PI. Oral iron therapy was not permitted. Calcium-containing drugs were not permitted if given within two hours of food ingestion (calcium-containing drugs were permitted two hours or more prior to or following food ingestion or at bedtime for the purpose of raising the serum calcium). No Vitamin C supplements were permitted. Patients were allowed to take daily water soluble vitamins that include a small amount of Vitamin C (e.g., Centrum, Nephrocaps, Renaphro), but those patients were instructed to take them two hours or more prior to or following food ingestion or at bedtime. IV iron therapy was not permitted if the ferritin level is >1000 micrograms/L or the TSAT is >30%. If it was deemed in the patient's best interest to receive IV iron outside these parameters, the Clinical Coordinating Center (CCC) was consulted, and when approved and documented, was not considered a protocol exception.
The cumulative IV iron intake from randomization to Week 52 will be compared between treatment groups. This variable will be similarly analyzed as the primary efficacy variable using ANCOVA method. The two-sided 95% confidence intervals of treatment differences for all above comparisons will be presented.

[5] = Week 12, last observation carried forward
[6] = Method 1 to Handle Overlapping Doses, Table 19

Substance: iron (+3), x (1, 2, 3-propanetricarboxylic acid, 2-hydroxy-), y (H2O) [KRX-0502]
- Mean C-Terminal FGF-23, Baseline (C-Terminal FGF-23; Baseline): 468 pg/mL
- Mean C-Terminal FGF-23, End of Treatment (Week 12) (C-Terminal FGF-23; [5]): 316 pg/mL
- differences in serum calcium levels and liver enzymes (ALT, AST) ([1]; KRX-0502 vs placebo): no clinically meaningful or statistically significant differences
- Serious adverse events, % of subjects ([1]; Phase 2 study): 8%
- Serious adverse events, number of subjects ([1]; Phase 2 study): six
- study discontinuations due to hypophosphatemia ([1]; Phase 2 study): no study discontinuations due to hypophosphatemia
- safety and tolerability ([1]; Phase 2 study, safety population): safe and well-tolerated
- discontinuation rates ([1]; including Treatment Failures): 19%
- Treatment Failures (n), Hemoglobin <9.0 g/dL [2]: 1
- Treatment Failures (n), Serum Phosphorus ≥6.0 mg/dL [2]: 0
- Mean Intact FGF-23, Baseline ([3]; Baseline): 319 pg/mL
- Mean Intact FGF-23, End of Treatment (Week 12) [3, 5]: 200 pg/mL
- Average Daily IV iron intake based on the Cumulative IV iron intake to week 52 (Visit 4-21), Mean [4, 6]: 2.96
- Average Daily IV iron intake based on the Cumulative IV iron intake to week 52 (Visit 4-21), Median [4, 6]: 1.86
- mean reduction in average cumulative IV iron intake ([4]; administered over a period of 52 weeks, stated as embodiment): 51.6%
